Test results taken from patent publication US8648066B2 (Exelixis, Inc., priority 2009, dated 2014).

Target: mTOR/GbL/Raptor (mTORC1) (Homo sapiens, UniProt P42345)
Assay: mTOR/GbL/Raptor (mTORC1) ELISA assay
Assay type: biochemical
Conditions: phosphorylation of 4E-BP1; 0.2 nM mTORC1, 10 μM ATP; read-out: IC50 in this assay (mTORC1 ELISA)
Method in brief: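 Human mTORC1 (0.2 nM) phosphorylated 50 nM His-tagged 4E-BP1 with 10 µM ATP in HEPES pH 7.2 containing 10 mM MnCl2, 120 min at ambient temperature. Substrate was captured on Ni-chelate plates; phospho-4E-BP1 was detected by primary antibody and HRP secondary with luminescence.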

Structure (SMILES)	IC50
c1ccc2c(N3CCOc4ccc(-c5ccc6nc[nH]c6c5)cc4C3)ccnc2c1 [Example 126, 7-(1H-benzimidazol-6-yl)-4-quinolin-4-yl-2,3,4,5-tetrahydro-1,4-benzoxazepine]	0.25 to 1 µM
c1ccc2c(N3CCOc4ccc(-c5ccc6scnc6c5)cc4C3)ccnc2c1 [Example 129, 7-(1,3-benzothiazol-5-yl)-4-quinolin-4-yl-2,3,4,5-tetrahydro-1,4-benzoxazepine]	0.25 to 1 µM
Cc1ncnc(N2CCOc3ccc(-c4ccc(-c5ncc[nH]5)cc4)cc3C2)c1Cc1ccc(F)cc1 [Example 131, 4-{5-[(4-fluorophenyl)methyl]-6-methylpyrimidin-4-yl}-7-[4-(1H-imidazol-2-yl)phenyl]-2,3,4,5-tetrahydro-1,4-benzoxazepine]	≤ 0.01 µM
c1ccc2c(N3CCOc4ccc(-c5ccc6nccnc6c5)cc4C3)ccnc2c1 [Example 132, 4-quinolin-4-yl-7-quinoxalin-6-yl-2,3,4,5-tetrahydro-1,4-benzoxazepine]	≥ 2 µM
CN(C)C(=O)c1cccc(-c2ccc3c(c2)CN(c2ccnc4ccccc24)CCO3)c1 [Example 134, N,N-dimethyl-3-(4-quinolin-4-yl-2,3,4,5-tetrahydro-1,4-benzoxazepin-7-yl)benzamide]	≥ 2 µM
c1ccc2c(N3CCOc4ccc(-c5ccc6c(c5)CCO6)cc4C3)ccnc2c1 [Example 135, 7-(2,3-dihydro-1-benzofuran-5-yl)-4-quinolin-4-yl-2,3,4,5-tetrahydro-1,4-benzoxazepine]	1 to 2 µM
c1ccc2c(N3CCOc4ccc(-c5ccc6cn[nH]c6c5)cc4C3)ccnc2c1 [Example 136, 7-(1H-indazol-6-yl)-4-quinolin-4-yl-2,3,4,5-tetrahydro-1,4-benzoxazepine]	1 to 2 µM
c1ccc2c(N3CCOc4ccc(-c5cn[nH]c5)cc4C3)ccnc2c1 [Example 137, 7-(1H-pyrazol-4-yl)-4-quinolin-4-yl-2,3,4,5-tetrahydro-1,4-benzoxazepine]	1 to 2 µM
c1ccc2c(N3CCOc4ccc(-c5ccc6[nH]ncc6c5)cc4C3)ccnc2c1 [Example 138, 7-(1H-indazol-5-yl)-4-quinolin-4-yl-2,3,4,5-tetrahydro-1,4-benzoxazepine]	≥ 2 µM
Cc1ncnc(N2CCOc3ccc(-c4ccc5nc(N)sc5n4)cc3C2)c1Cc1ccc(F)cc1 [Example 140, 5-(4-{5-[(4-fluorophenyl)methyl]-6-methylpyrimidin-4-yl}-2,3,4,5-tetrahydro-1,4-benzoxazepin-7-yl)[1,3]thiazolo[5,4-b]pyridin-2-amine]	0.01 to 0.05 µM
Cc1ncnc(N2CCOc3ccc(-c4ccc5nc(N)nn5c4)cc3C2)c1Cc1ccc(F)cc1 [Example 141, 6-(4-{5-[(4-fluorophenyl)methyl]-6-methylpyrimidin-4-yl}-2,3,4,5-tetrahydro-1,4-benzoxazepin-7-yl)[1,2,4]triazolo[1,5-a]pyridin-2-amine]	0.01 to 0.05 µM
Cc1ncnc(N2CCOc3ccc(-c4cnc5nc[nH]c5c4)cc3C2)c1Cc1ccc(F)cc1 [Example 142, 4-{5-[(4-fluorophenyl)methyl]-6-methylpyrimidin-4-yl}-7-(1H-imidazo[4,5-b]pyridin-6-yl)-2,3,4,5-tetrahydro-1,4-benzoxazepine]	≤ 0.01 µM
Cc1ncnc(N2CCOc3ccc(-c4ccc5nc(N)ncc5c4)cc3C2)c1Cc1ccc(F)cc1 [Example 143, 6-(4-{5-[(4-fluorophenyl)methyl]-6-methylpyrimidin-4-yl}-2,3,4,5-tetrahydro-1,4-benzoxazepin-7-yl)quinazolin-2-amine]	0.01 to 0.05 µM
Cc1ncnc(N2CCOc3ccc(-c4cnc5nc(N)cn5c4)cc3C2)c1Cc1ccc(F)cc1 [Example 144, 6-(4-{5-[(4-fluorophenyl)methyl]-6-methylpyrimidin-4-yl}-2,3,4,5-tetrahydro-1,4-benzoxazepin-7-yl)imidazo[1,2-a]pyrimidin-2-amine]	0.01 to 0.05 µM
Cc1ncnc(N2CCOc3ccc(-c4ccc5nc(N)cn5c4)cc3C2)c1Cc1ccc(F)cc1 [Example 145, 6-(4-{5-[(4-fluorophenyl)methyl]-6-methylpyrimidin-4-yl}-2,3,4,5-tetrahydro-1,4-benzoxazepin-7-yl)imidazo[1,2-a]pyridin-2-amine]	0.01 to 0.05 µM
Cc1ncnc(N2CCOc3ccc(-c4ccn5nc(N)nc5c4)cc3C2)c1Cc1ccc(F)cc1 [Example 146, 7-(4-{5-[(4-fluorophenyl)methyl]-6-methylpyrimidin-4-yl}-2,3,4,5-tetrahydro-1,4-benzoxazepin-7-yl)[1,2,4]triazolo[1,5-a]pyridin-2-amine]	0.01 to 0.05 µM
Cc1ncnc(N2CCOc3ccc(-c4ccc5sc(N)nc5c4)cc3C2)c1Cc1ccc(F)cc1 [Example 148, 5-(4-{5-[(4-fluorophenyl)methyl]-6-methylpyrimidin-4-yl}-2,3,4,5-tetrahydro-1,4-benzoxazepin-7-yl)-1,3-benzothiazol-2-amine]	≤ 0.01 µM

Structure (SMILES)	IC50
Cc1ncnc(N2CCOc3ccc(-c4ccc(N)nn4)cc3C2)c1Cc1ccc(F)cc1 [Example 149, 6-(4-{5-[(4-fluorophenyl)methyl]-6-methylpyrimidin-4-yl}-2,3,4,5-tetrahydro-1,4-benzoxazepin-7-yl)pyridazin-3-amine]	0.05 to 0.25 µM
Cc1ncnc(N2CCOc3ccc(-c4cncs4)cc3C2)c1Cc1ccc(F)cc1 [Example 150, 4-{5-[(4-fluorrophenyl)methyl]-6-methylpyrimidin-4-yl}-7-(1,3-thiazol-5-yl)-2,3,4,5-tetrahydro-1,4-benzoxazepine]	0.05 to 0.25 µM
Cc1ncnc(N2CCOc3ccc(-c4cnc(N)cn4)cc3C2)c1Cc1ccc(F)cc1 [Example 151, 5-(4-{5-[(4-fluorophenyl)methyl]-6-methylpyrimidin-4-yl}-2,3,4,5-tetrahydro-1,4-benzoxazepin-7-yl)pyrazin-2-amine]	0.05 to 0.25 µM
Cc1ncc(-c2ccc3c(c2)CN(c2ncnc4c2CCC(C)(C)C4)CCO3)s1 [Example 152, 4-(7,7-dimethyl-5,6,7,8-tetrahydroquinoazlin-4-yl)-7-(2-methyl-1,3-thiazol-5-yl)-2,3,4,5-tetrahydro-1,4-benzoxazepine]	0.25 to 1 µM
Cc1ncnc(N2CCOc3ccc(-c4cnc(N)nc4)cc3C2)c1Cc1ccc(F)cc1 [Example 153, 5-(4-{5-[(4-fluorophenyl)methyl]-6-methylpyrimidin-4-yl}-2,3,4,5-tetrahydro-1,4-benzoxazepin-7-yl)pyrimidin-2-amine]	≤ 0.01 µM
Cc1nc(N)sc1-c1ccc2c(c1)CN(c1ncnc(C)c1Cc1ccc(F)cc1)CCO2 [Example 154, 5-(4-{5-[(4-fluorophenyl)methyl]-6-methylpyrimidin-4-yl}-2,3,4,5-tetrahydro-1,4-benzoxazepin-7-yl)-4-methyl-1,3-thiazol-2-amine]	0.05 to 0.25 µM
CNC(=O)c1ccc(-c2ccc3c(c2)CN(c2ncnc(C)c2Cc2ccc(F)cc2)CCO3)nc1 [Example 155, 6-(4-{5-[(4-fluorophenyl)methyl]-6-methylpyrimidin-4-yl}-2,3,4,5-tetrahydro-1,4-benzoxazepin-7-yl)-N-methylpyridine-3-carboxamide]	0.25 to 1 µM
Cc1nc(N)sc1-c1ccc2c(c1)CN(c1ncnc3c1CCC(C)(C)C3)CCO2 [Example 156, 5-[4-(7,7-dimethyl-5,6,7,8-tetrahydroquinazolin-4-yl)-2,3,4,5-tetrahydro-1,4-benzoxazepin-7-yl]-4-methyl-1,3-thiazol-2-amine]	0.01 to 0.05 µM
COc1cc2c(N3CCOc4ccc(-c5ccc6nc(C)[nH]c6c5)cc4C3)ncnc2cc1O [Example 157, 4-[7-(2-methyl-1H-benzimidazol-6-yl)-2,3-dihydro-1,4-benzoxazepin-4(5H)-yl]-6-(methyloxy)quinazolin-7-ol]	0.25 to 1 µM
Cc1nc2ccc(-c3ccc4c(c3)CN(c3ncnc5ccc(O)cc35)CCO4)cc2[nH]1 [Example 158, 4-[7-(2-methyl-1H-benzimidazol-6-yl)-2,3-dihydro-1,4-benzoxazepin-4(5H)-yl]quinazolin-6-ol]	0.01 to 0.05 µM
CCOc1ccc2ncnc(N3CCOc4ccc(-c5ccc6nc(C)[nH]c6c5)cc4C3)c2c1 [Example 159, 4-[6-(ethyloxy)quinazolin-4-yl]-7-(2-methyl-1H-benzimidazol-6-yl)-2,3,4,5-tetrahydro-1,4-benzoxazepine]	0.05 to 0.25 µM
Cc1nc2ccc(-c3ccc4c(c3)CN(c3ncnc5ccc(OCC#N)cc35)CCO4)cc2[nH]1 [Example 160, ({4-[7-(2-methyl-1H-benzimidazol-6-yl)-2,3-dihydro-1,4-benzoxazepin-4(5H)-yl]quinazolin-6-yl}oxy)acetonitrile]	0.25 to 1 µM
Cc1nc2ccc(-c3ccc4c(c3)CN(c3ncnc5ccc(OCCCN(C)C)cc35)CCO4)cc2[nH]1 [Example 161, N,N-dimethyl-3-({4-[7-(2-methyl-1H-benzimidazol-6-yl)-2,3-dihydro-1,4-benzoxazepin-4(5H)-yl]quinazolin-6-yl}oxy)propan-1-amine]	1 to 2 µM
CCCOc1ccc2ncnc(N3CCOc4ccc(-c5ccc6nc(C)[nH]c6c5)cc4C3)c2c1 [Example 162, 7-(2-methyl-1H-benzimidazol-6-yl)-4-[6-(propyloxy)quinazolin-4-yl]-2,3,4,5-tetrahydro-1,4-benzoxazepine]	0.25 to 1 µM
COCCOc1ccc2ncnc(N3CCOc4ccc(-c5ccc6nc(C)[nH]c6c5)cc4C3)c2c1 [Example 163, 7-(2-methyl-1H-benzimidazol-6-yl)-4-(6-{[2-(methyloxy)ethyl]oxy}quinazolin-4-yl)-2,3,4,5-tetrahydro-1,4-benzoxazepine]	≥ 2 µM
COc1c(O)ccc2c(N3CCOc4ccc(-c5ccc6nc(C)[nH]c6c5)cc4C3)ncnc12 [Example 164, 4-[7-(2-methyl-1H-benzimidazol-6-yl)-2,3-dihydro-1,4-benzoxazepin-4-(5H)-yl]-8-(methyloxy)quinazolin-7-ol]	0.25 to 1 µM
